# Test results from ChEMBL document CHEMBL5291721, “A preclinical secondary pharmacology resource illuminates target-adverse drug reaction associations of marketed drugs” (Nat Commun, 2023).
# Experiments:
# [1] = target: T1, Muscarinic acetylcholine receptor M2 (Homo sapiens, UniProt P08172)
# T1 sequence (P08172 whole entry): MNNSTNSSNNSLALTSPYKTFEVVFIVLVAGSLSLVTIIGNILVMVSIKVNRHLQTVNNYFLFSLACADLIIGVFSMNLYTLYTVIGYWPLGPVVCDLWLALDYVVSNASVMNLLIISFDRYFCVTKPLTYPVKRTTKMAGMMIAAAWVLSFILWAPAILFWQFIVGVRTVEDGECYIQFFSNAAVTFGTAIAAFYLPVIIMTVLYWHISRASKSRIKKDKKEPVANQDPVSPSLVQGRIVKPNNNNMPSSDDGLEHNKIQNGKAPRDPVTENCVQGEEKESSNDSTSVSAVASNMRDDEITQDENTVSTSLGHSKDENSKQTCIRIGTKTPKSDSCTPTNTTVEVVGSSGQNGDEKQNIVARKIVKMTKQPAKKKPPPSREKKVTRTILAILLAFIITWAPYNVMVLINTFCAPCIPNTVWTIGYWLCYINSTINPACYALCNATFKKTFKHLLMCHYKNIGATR
# [2] = target: Sodium-dependent noradrenaline transporter (Homo sapiens, UniProt P23975)
# [3] = target: D(1A) dopamine receptor (Homo sapiens, UniProt P21728)
# [4] = target: Prothrombin (Homo sapiens, UniProt P00734); assay type: functional
# [5] = target: T2, Thromboxane A2 receptor (Homo sapiens, UniProt P21731); assay type: functional, cell-based
# T2 sequence (P21731 whole entry): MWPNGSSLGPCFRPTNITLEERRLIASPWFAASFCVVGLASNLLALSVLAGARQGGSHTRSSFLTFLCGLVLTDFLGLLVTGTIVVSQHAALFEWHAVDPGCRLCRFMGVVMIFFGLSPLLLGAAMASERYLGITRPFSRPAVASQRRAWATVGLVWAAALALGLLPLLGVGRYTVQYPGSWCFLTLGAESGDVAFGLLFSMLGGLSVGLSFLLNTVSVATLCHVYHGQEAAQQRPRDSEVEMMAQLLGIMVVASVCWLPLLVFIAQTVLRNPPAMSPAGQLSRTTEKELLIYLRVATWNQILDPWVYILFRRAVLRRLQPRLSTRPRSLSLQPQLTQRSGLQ
# [6] = target: T3, 5-hydroxytryptamine receptor 1A (Homo sapiens, UniProt P08908)
# T3 sequence (P08908 whole entry): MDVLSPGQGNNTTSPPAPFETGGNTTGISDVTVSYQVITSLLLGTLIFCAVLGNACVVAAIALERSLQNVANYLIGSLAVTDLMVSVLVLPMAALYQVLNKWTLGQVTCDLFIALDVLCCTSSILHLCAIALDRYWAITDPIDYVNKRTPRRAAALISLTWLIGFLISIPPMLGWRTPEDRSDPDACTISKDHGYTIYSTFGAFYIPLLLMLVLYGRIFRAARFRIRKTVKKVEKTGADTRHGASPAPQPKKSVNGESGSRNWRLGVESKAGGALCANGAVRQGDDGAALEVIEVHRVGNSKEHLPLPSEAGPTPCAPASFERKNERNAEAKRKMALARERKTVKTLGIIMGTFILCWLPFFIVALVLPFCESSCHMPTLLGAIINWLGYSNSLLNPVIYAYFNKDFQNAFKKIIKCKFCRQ
# [7] = target: 3',5'-cyclic-AMP phosphodiesterase 4A (Homo sapiens, UniProt P27815); assay type: functional
# [8] = target: T2, Thromboxane A2 receptor; assay type: functional, cell-based; remark: listed apart in the source
# [9] = target: T4, Prostaglandin G/H synthase 1 (Homo sapiens, UniProt P23219); assay type: functional
# [10] = target: Acetylcholinesterase (Homo sapiens, UniProt P22303); assay type: functional
# [11] = target: Histamine H3 receptor (Homo sapiens, UniProt Q9Y5N1)
# [12] = target: T5, Amine oxidase [flavin-containing] A (Homo sapiens, UniProt P21397); assay type: functional
# T5 sequence (P21397 whole entry): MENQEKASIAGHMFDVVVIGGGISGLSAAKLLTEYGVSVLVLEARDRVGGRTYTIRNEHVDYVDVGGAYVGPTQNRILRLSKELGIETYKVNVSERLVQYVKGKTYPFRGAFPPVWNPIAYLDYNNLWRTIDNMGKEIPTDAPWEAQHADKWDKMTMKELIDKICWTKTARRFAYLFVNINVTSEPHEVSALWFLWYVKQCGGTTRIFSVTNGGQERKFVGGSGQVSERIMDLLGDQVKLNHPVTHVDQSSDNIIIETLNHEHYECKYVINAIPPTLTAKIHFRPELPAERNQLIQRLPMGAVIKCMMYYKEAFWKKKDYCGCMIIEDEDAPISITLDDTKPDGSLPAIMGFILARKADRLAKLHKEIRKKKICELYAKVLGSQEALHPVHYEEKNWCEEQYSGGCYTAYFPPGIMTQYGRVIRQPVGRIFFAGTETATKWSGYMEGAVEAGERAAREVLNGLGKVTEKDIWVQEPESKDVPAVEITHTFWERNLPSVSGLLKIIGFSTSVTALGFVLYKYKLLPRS
# [13] = target: Voltage-gated inwardly rectifying potassium channel KCNH2 (Homo sapiens, UniProt Q12809); assay type: functional; conditions: read-out: AC50
# [14] = target: Mu-type opioid receptor (Homo sapiens, UniProt P35372)
# [15] = target: Sodium-dependent dopamine transporter (Homo sapiens, UniProt Q01959)
# [16] = target: T4, Prostaglandin G/H synthase 1; assay type: functional; remark: listed apart in the source
# [17] = target: 5-hydroxytryptamine receptor 2B (Homo sapiens, UniProt P41595); assay type: functional, cell-based
# [18] = target: cGMP-inhibited 3',5'-cyclic phosphodiesterase 3A (Homo sapiens, UniProt Q14432); assay type: functional
# [19] = target: D(3) dopamine receptor (Homo sapiens, UniProt P35462)
# Further: assay procedure not described here.
# Sequence of 3',5'-cyclic-AMP phosphodiesterase 4A (P27815 whole entry): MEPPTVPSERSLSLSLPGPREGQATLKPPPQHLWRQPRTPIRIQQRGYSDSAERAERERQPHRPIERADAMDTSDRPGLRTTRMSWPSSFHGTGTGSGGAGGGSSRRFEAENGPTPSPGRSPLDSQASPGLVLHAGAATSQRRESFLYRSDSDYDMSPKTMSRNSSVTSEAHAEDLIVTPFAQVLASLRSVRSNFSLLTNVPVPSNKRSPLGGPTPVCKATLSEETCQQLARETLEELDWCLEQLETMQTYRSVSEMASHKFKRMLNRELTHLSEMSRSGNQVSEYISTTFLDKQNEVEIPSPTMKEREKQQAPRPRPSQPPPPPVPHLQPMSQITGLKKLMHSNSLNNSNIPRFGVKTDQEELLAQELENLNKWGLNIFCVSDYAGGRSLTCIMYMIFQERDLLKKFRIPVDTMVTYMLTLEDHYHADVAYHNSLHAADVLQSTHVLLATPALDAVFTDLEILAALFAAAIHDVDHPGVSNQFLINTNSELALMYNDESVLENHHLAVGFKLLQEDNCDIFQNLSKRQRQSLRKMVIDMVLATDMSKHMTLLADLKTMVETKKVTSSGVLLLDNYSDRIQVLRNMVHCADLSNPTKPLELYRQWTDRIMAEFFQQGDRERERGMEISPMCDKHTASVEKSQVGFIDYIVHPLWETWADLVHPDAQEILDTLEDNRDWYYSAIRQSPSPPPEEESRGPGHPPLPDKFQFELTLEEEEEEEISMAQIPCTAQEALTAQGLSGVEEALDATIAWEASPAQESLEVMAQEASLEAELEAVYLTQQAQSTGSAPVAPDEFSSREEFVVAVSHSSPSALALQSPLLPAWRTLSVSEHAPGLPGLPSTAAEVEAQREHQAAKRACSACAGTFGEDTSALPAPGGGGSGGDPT
# Sequence of Sodium-dependent noradrenaline transporter (P23975 whole entry): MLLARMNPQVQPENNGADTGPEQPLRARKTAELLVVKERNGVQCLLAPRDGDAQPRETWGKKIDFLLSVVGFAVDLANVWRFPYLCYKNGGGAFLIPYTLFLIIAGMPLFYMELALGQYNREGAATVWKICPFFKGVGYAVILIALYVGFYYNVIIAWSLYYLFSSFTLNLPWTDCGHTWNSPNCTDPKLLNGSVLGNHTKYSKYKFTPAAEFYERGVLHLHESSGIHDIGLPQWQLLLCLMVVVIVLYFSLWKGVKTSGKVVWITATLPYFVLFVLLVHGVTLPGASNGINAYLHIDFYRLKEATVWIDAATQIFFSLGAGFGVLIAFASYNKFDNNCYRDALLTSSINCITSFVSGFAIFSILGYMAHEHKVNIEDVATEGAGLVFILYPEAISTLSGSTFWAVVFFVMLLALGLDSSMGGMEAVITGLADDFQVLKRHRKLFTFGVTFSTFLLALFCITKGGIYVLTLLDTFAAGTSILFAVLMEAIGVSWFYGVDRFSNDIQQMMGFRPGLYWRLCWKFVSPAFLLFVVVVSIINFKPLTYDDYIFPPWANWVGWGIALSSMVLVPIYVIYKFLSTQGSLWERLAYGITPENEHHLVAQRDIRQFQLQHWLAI
# Sequence of D(1A) dopamine receptor (P21728 whole entry): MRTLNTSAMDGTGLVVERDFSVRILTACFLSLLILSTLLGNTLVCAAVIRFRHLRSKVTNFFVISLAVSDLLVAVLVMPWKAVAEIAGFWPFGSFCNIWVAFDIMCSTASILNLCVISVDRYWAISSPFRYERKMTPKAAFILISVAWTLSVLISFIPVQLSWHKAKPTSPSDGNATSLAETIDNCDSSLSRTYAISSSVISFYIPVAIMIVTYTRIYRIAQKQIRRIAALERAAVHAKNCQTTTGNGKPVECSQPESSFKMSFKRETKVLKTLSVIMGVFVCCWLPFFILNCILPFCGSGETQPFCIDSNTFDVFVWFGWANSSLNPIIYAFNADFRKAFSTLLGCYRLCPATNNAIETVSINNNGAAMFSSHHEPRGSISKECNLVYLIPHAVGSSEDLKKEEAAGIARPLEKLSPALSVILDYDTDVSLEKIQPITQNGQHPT
# Sequence of 5-hydroxytryptamine receptor 2B (P41595 whole entry): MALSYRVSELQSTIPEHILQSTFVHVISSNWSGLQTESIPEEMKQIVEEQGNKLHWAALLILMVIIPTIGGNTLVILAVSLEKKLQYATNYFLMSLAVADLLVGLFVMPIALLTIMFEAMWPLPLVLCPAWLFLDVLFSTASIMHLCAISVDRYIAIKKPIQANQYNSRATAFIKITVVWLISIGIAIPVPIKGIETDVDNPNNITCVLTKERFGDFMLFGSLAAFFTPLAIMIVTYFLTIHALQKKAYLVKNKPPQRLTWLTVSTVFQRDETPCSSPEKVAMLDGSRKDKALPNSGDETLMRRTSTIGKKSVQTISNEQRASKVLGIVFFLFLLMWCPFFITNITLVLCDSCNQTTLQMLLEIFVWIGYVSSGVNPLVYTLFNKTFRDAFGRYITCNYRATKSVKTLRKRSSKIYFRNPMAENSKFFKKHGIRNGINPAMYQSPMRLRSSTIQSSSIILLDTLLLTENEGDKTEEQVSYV
# T4 sequence (P23219 whole entry): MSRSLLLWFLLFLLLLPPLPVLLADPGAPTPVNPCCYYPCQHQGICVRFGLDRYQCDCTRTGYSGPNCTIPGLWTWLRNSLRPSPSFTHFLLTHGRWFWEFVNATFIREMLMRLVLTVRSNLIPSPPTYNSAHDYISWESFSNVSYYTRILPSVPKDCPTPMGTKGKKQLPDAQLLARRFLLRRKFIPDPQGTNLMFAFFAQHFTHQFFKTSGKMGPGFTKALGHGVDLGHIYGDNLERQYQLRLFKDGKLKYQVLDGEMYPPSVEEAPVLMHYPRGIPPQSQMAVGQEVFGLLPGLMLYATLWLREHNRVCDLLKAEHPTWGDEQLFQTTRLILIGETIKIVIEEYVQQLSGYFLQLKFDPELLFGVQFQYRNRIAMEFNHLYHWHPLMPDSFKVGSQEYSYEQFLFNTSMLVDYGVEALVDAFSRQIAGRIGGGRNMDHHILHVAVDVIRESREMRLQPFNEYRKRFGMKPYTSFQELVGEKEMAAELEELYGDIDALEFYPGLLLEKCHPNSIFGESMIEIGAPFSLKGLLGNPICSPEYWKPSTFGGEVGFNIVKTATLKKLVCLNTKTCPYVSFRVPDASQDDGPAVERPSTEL
# Sequence of Acetylcholinesterase (P22303 whole entry): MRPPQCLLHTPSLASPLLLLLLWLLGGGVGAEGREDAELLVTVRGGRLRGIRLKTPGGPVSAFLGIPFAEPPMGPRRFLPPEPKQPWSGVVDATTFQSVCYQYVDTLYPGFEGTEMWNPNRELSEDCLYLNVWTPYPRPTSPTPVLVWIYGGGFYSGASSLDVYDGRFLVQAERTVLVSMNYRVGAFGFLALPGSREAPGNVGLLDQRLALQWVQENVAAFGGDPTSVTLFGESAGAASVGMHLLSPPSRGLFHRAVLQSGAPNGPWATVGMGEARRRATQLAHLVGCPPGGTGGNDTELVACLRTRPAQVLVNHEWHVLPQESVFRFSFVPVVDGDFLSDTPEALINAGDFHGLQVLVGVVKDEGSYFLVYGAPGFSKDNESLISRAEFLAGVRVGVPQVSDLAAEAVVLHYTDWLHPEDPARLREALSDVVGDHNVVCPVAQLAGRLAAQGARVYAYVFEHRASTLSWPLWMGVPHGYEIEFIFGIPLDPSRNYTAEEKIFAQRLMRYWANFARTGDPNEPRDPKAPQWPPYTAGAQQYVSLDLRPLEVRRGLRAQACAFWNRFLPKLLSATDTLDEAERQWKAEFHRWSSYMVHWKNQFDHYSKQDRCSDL
# Sequence of Sodium-dependent dopamine transporter (Q01959 whole entry): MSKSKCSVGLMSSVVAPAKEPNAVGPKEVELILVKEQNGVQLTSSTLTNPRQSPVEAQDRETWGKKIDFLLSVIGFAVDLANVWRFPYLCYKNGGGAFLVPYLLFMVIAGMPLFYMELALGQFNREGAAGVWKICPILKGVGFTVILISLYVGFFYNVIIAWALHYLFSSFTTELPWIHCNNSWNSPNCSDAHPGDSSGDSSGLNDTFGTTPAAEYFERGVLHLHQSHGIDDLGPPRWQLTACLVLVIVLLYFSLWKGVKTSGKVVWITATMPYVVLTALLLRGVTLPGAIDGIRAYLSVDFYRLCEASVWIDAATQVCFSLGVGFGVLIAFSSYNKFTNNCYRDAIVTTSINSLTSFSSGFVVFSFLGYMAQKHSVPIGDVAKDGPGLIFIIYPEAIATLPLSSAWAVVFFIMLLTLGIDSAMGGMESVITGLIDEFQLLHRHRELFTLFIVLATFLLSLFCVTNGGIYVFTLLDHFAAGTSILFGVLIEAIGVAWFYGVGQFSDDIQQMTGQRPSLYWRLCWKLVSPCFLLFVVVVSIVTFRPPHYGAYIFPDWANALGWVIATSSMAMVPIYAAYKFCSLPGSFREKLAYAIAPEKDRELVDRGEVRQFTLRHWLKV
# Sequence of Mu-type opioid receptor (P35372 whole entry): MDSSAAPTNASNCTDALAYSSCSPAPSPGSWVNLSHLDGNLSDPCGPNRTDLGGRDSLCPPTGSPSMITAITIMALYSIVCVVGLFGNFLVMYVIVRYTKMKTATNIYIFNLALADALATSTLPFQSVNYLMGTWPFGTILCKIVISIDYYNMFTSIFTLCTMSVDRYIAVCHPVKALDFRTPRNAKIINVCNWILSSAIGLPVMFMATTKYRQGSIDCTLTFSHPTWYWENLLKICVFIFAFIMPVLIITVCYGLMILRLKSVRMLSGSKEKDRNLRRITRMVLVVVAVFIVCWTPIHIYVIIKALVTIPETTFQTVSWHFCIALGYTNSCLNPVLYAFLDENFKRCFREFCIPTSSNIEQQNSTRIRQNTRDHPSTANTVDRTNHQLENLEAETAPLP
SMILES,AC50 [1],AC50 [2],AC50 [3],AC50 [4],AC50 [5],AC50 [6],AC50 [7],AC50 [8],AC50 [9],AC50 [10],AC50 [11],AC50 [12],AC50 [13],AC50 [14],AC50 [15],AC50 [16],AC50 [17],AC50 [18],AC50 [19]
COc1nccnc1NS(=O)(=O)c1ccc(N)cc1,> 30 µM,> 30 µM,> 30 µM,> 30 µM,> 30 µM,> 30 µM,> 30 µM,> 30 µM,> 30 µM,> 30 µM,> 30 µM,> 30 µM,> 30 µM,> 30 µM,> 30 µM,> 30 µM,> 30 µM,> 30 µM,> 30 µM
NC(=O)c1nc(F)c[nH]c1=O,> 30 µM,> 30 µM,> 30 µM,> 10 µM,> 30 µM,> 30 µM,> 30 µM,> 30 µM,> 30 µM,> 30 µM,> 30 µM,> 30 µM,> 30 µM,> 30 µM,> 30 µM,> 30 µM,> 30 µM,> 30 µM,> 30 µM
O=S(=O)(O)CCS [2-MERCAPTOETHANESULFONIC ACID],> 30 µM,> 30 µM,> 30 µM,> 30 µM,> 30 µM,> 30 µM,9 µM,> 30 µM,0.486 µM,> 10 µM,> 30 µM,> 30 µM,> 30 µM,> 30 µM,> 30 µM,0.78 µM,> 30 µM,> 30 µM,> 30 µM
CN(C)CCN(Cc1ccc(Cl)cc1)c1ccccn1 [CHLOROPYRAMINE],2.88 µM,19.4 µM,2.23 µM,> 30 µM,> 30 µM,> 30 µM,> 30 µM,> 30 µM,> 30 µM,> 30 µM,> 30 µM,> 30 µM,0.54 µM,5.22 µM,0.21 µM,> 30 µM,> 30 µM,> 30 µM,1.35 µM
O=C(O)c1cc(=O)c2ccccc2o1 [CHROMOCARB],> 30 µM,> 30 µM,> 30 µM,> 30 µM,> 30 µM,> 30 µM,> 30 µM,> 30 µM,23.9 µM,> 30 µM,> 30 µM,> 30 µM,> 30 µM,> 30 µM,> 30 µM,> 30 µM,> 30 µM,> 30 µM,> 30 µM
CN(CC(=O)O)C(=N)N [CREATINE],> 30 µM,> 30 µM,> 30 µM,> 30 µM,> 30 µM,> 30 µM,> 30 µM,> 30 µM,> 30 µM,> 30 µM,> 30 µM,> 30 µM,> 30 µM,> 30 µM,> 30 µM,> 30 µM,> 30 µM,> 30 µM,> 30 µM
C[C@]12CC[C@@H]3c4ccc(O)cc4CC[C@H]3[C@@H]1CC[C@@H]2OC(=O)CCC1CCCC1 [ESTRADIOL CYPIONATE],> 30 µM,> 30 µM,> 30 µM,> 30 µM,> 30 µM,> 30 µM,17.6 µM,> 30 µM,4.37 µM,> 30 µM,> 30 µM,> 30 µM,> 30 µM,> 30 µM,> 30 µM,> 30 µM,> 30 µM,12.5 µM,> 30 µM
CC1(C)O[C@@H]2C[C@H]3[C@@H]4CCC5=CC(=O)CC[C@]5(C)[C@@]4(F)[C@@H](O)C[C@]3(C)[C@]2(C(=O)CCl)O1 [HALCINONIDE],> 30 µM,> 30 µM,> 30 µM,> 30 µM,> 30 µM,> 30 µM,> 30 µM,> 30 µM,> 30 µM,> 30 µM,> 30 µM,> 30 µM,> 30 µM,> 30 µM,> 30 µM,> 30 µM,> 30 µM,> 30 µM,> 30 µM
N=C(N)NCc1cccc([123I])c1 [IOBENGUANE I 123],> 30 µM,8.75 µM,13.4 µM,> 30 µM,> 30 µM,2.49 µM,> 30 µM,> 30 µM,> 30 µM,> 30 µM,> 30 µM,26.4 µM,> 30 µM,22 µM,6.39 µM,> 30 µM,> 30 µM,> 30 µM,8.17 µM
C=C1c2c(Cl)ccc(O)c2C(=O)C2=C(O)[C@]3(O)C(=O)C(C(N)=O)=C(O)[C@@H](N(C)C)[C@@H]3[C@@H](O)[C@H]12 [MECLOCYCLINE],> 30 µM,> 30 µM,> 30 µM,> 30 µM,> 30 µM,> 30 µM,> 30 µM,> 30 µM,> 30 µM,> 30 µM,> 30 µM,> 30 µM,> 30 µM,> 30 µM,> 30 µM,> 30 µM,> 30 µM,> 30 µM,> 30 µM
Cc1cc2c(OCC(O)CNC(C)C)cccc2[nH]1 (centres undefined) [MEPINDOLOL],> 30 µM,5.31 µM,> 30 µM,> 30 µM,> 30 µM,0.0041 µM,> 30 µM,> 30 µM,15.2 µM,> 30 µM,> 30 µM,> 30 µM,> 30 µM,21 µM,> 30 µM,10.9 µM,> 30 µM,> 30 µM,19.9 µM
